Experiment [1] concerns IPOHE (Ipomoea hederacea, ivyleaf morningglory). The experiment can be described thus: Postemergence foliar-applied mixtures, direct seeded rice, greenhouse. The experiment is classed as in vivo, Ipomoea hederacea Jacq. To be noted: post-emergence, 480 h. The source says:
Seeds or nutlets of the desired test plant species were planted in a soil matrix prepared by mixing a loam or sandy loam soil (e.g., 28.6 percent silt, 18.8 percent clay, and 52.6 percent sand, with a pH of about 5.8 and an organic matter content of about 1.8 percent) and calcareous grit in an 80 to 20 ratio. The soil matrix was contained in plastic pots with a volume of 1 quart and a surface area of 83.6 square centimeters (cm^2). When required to ensure good germination and healthy plants, a fungicide treatment and/or other chemical or physical treatment was applied. The plants were grown for 8-22 days in a greenhouse with an approximate 14 h photoperiod which was maintained at about 29° C. during the day and 26° C. during the night. Nutrients (Peters Excel® 15-5-15 5-Ca 2-Mg and iron chelate) were applied in the irrigation solution as needed and water was added on a regular basis. Supplemental lighting was provided with overhead metal halide 1000-Watt lamps as necessary. The plants were employed for testing when they reached the first through fourth true leaf stage.
Treatments consisted of the acid or esters of 4-amino-3-chloro-5-fluoro-6-(4-chloro-2-fluoro-3-methoxy-phenyl) pyridine-2-carboxylic acid (Compound A), each formulated as an SC (suspension concentrate), and various herbicidal components alone and in combination. Forms of compound A were applied on an acid equivalent basis.
Other herbicidal components were applied on an active ingredient basis and included Photosystem II (PSII)-inhibiting herbicides propanil formulated as Stam® M4 EC, bentazon-sodium formulated as Basagran®, atrazine formulated as Atrazine 90 WDG, bromoxynil octanoate ester formulated as Buctril®, simetryne (technical grade material), simazine formulated as Princep® Caliber 90, ioxynil (technical grade material), cyanazine (technical grade material), and hexazinone (technical grade material).
Treatment requirements were calculated based upon the rates being tested, the concentration of active ingredient or acid equivalent in the formulation, and a 12 mL application volume at a rate of 187 L/ha.
For treatments comprised of formulated compounds, measured amounts of compounds were placed individually in 25 mL glass vials and diluted in a volume of 1.25% (v/v) Agri-Dex® crop oil concentrated to obtain 12× stock solutions. […] Application solutions were prepared by adding an appropriate amount of each stock solution (e.g., 1 mL) and diluted to the appropriate final concentrations with the addition of 10 mL of an aqueous mixture of 1.25% (v/v) crop oil concentrate so that the final spray solutions contained 1.25+/−0.05% (v/v) crop oil concentrate.
For treatments comprised of technical compounds, weighed amounts can be placed individually in 25 mL glass vials and dissolved in a volume of 97:3 v/v acetone/DMSO to obtain 12× stock solutions. […] Application solutions can be prepared by adding an appropriate amount of each stock solution (e.g., 1 mL) and diluted to the appropriate final concentrations with the addition of 10 mL of an aqueous mixture of 1.5% (v/v) crop oil concentrate so that the final spray solutions contain 1.25% (v/v) crop oil concentrate. When technical materials are used, the concentrated stock solutions can be added to the spray solutions so that the final acetone and DMSO concentrations of the application solutions are 16.2% and 0.5%, respectively.
For treatments comprised of formulated and technical compounds, weighed amounts of the technical materials were placed individually in 25 mL glass vials and dissolved in a volume of 97:3 v/v acetone/DMSO to obtain 12× stock solutions, and measured amounts of the formulated compounds were placed individually in 25 mL glass vials and diluted in a volume of 1.5% (v/v) crop oil concentrate or water to obtain 12× stock solutions. […]

For experiment [2], the system named is ECHOR (Echinochloa oryzoides, early watergrass). The experiment is described as follows: In-water applied mixtures, transplanted paddy rice, greenhouse. To be noted: 70 g ae/ha; 20 DAA. The experiment is classed as in vivo, Echinochloa oryzoides (Ard.) Fritsch. How it is done: (§1) Weed seeds or nutlets of the desired test plant species were planted in puddled soil (mud) prepared by mixing a shredded, non-sterilized mineral soil (50.5 percent silt, 25.5 percent clay, and 24 percent sand, with a pH of about 7.6 and an organic matter content of about 2.9 percent) and water at a 1:1 volumetric ratio. The prepared mud was dispensed in 365 mL aliquots into 16-ounce (oz.) non-perforated plastic pots with a surface area of 86.59 square centimeters (cm^2) leaving a headspace of 3 centimeters (cm) in each pot Mud was allowed to dry overnight prior to planting or transplanting. Rice seeds were planted in Sun Gro MetroMix® 306 planting mixture, which typically has a pH of 6.0 to 6.8 and an organic matter content of about 30 percent, in plastic plug trays. Seedlings at the second or third leaf stage of growth were transplanted into 840 mL of mud contained in 32-oz. non-perforated plastic pots with a surface area of 86.59 cm^2 4 days prior to herbicide application. The paddy was created by filling the headspace of the pots with 2.5 to 3 cm of water. When required to ensure good germination and healthy plants, a fungicide treatment and/or other chemical or physical treatment was applied. The plants were grown for 4-22 days in a greenhouse with an approximate 14 h photoperiod which was maintained at about 29° C during the day and 26° C. during the night. Nutrients were added as Osmocote® (19:6:12, N:P:K+ minor nutrients) at 2 g per 16-oz. pot and 4 g per 32-oz. pot. Water was added on a regular basis to maintain the paddy flood, and supplemental lighting was provided with overhead metal halide 1000-Watt lamps as necessary. The plants were employed for testing when they reached the first through fourth true leaf stage.
(§2) Treatments consisted of the acid or esters of 4-amino-3-chloro-5-fluoro-6-(4-chloro-2-fluoro-3-methoxy-phenyl)pyridine-2-carboxylic acid (compound A) each formulated as an SC (suspension concentrate) and various herbicidal components alone and in combination. Forms of compound A were applied on an acid equivalent basis.
(§3) Other herbicidal components were applied on an active ingredient basis and included photosystem II (PSII)-inhibits propanil formulated as […] bentazon-sodium formulated as Basagran®, and simetryne (technical grade material).
(§4) Treatment requirements for each compound or herbicidal component were calculated based upon the rates being tested, the concentration of active ingredient or acid equivalent in the formulation, an application volume of 2 mL per component per pot, and an application area of 86.59 cm^2 per pot.
(§5) For formulated compounds, a measured amount was placed in an individual 100 or 200 mL glass vial and was dissolved in a volume of 1.25% (v/v) Agri-Dex® crop oil concentrate to obtain application solutions.
(§6) For technical grade compounds, a weighed amount was placed in an individual 100 to 200 mL glass vial and was dissolved in a volume of acetone to obtain concentrated stock solutions. […] The concentrated stock solutions obtained were diluted with an equivalent volume of an aqueous mixture containing 2.5% (v/v) crop oil concentrate so that the final application solutions contained 1.25% (v/v) crop oil concentrate.
(§7) Applications were made by injecting with a pipetter appropriate amounts of the application solutions, individually and sequentially, into the aqueous layer of the paddy. Control plants were treated in the same manner with the solvent blank. Applications were made so that all treated plant material received the same concentrations of acetone and crop oil concentrate.
(§8) The treated plants and control plants were placed in a greenhouse as described above and water was added as needed to maintain a paddy flood. After approximately 3 weeks the condition of the test plants as compared with that of the untreated plants was determined visually and scored on a scale of 0 to 100 percent where 0 corresponds to no injury or growth inhibition and 100 corresponds to complete kill. […]

The test system of experiment [3] is SCPMA (Schoenoplectus maritimus, sea clubrush). The experiment is described as above. The experiment is classed as in vivo, Schoenoplectus maritimus (L.) Lye. To be noted: 20 DAA. As for the experimental part: as §1, §2, §3, §4, §5, §6, §7, §8

On to `CCCCOC(=O)c1nc(-c2ccc(Cl)c(OC)c2F)c(F)c(N)c1Cl` [Compound A n-Butyl Ester], for which the pest or weed control at 16 g/ha in experiment [1] (read-out: Visual Weed Control (%) Obs, 16 g ae/ha, 20 DAA) is 15%. Moreover, the pest or weed control at 17.5 g/ha in experiment [1] (read-out: Visual Weed Control (%) Obs, 17.5 g ae/ha, 20 DAA) came to 48%. The “Visual Weed Control (%) Obs” value in experiment [2] was 40%; in experiment [3] (35 g ae/ha) it was 0%; in experiment [3] (70 g ae/ha), 0%.

The values are drawn from patent US8912121B2, “Herbicidal compositions comprising 4-amino-3-chloro-5-fluoro-6-(4-chloro-2-fluoro-3-methoxyphenyl)pyridine-2-carboxylic acid or a derivative thereof and certain PS II inhibitors” (Dow Agrosciences LLC, priority 2012, dated 2014).
